Assay: Solubility evaluation in organic solvent
Format: physicochemical
Details: for Solubility Chlorobenzene / Solubility Toluene: 30 mg compound made up to 1.0 g solution, rolled at room temperature for 1 hour, 0.2 μm syringe filter
Protocol: An organic solvent was added to 30 mg of each compound, and mixed until the total weight of each solution became 1.0 g. The mixture was rolled at room temperature for 1 hour, and then filtered with a syringe filter (Acrodisc Company) whose average pore diameter was 0.2 μm. Herein, solubility and film-forming properties were compared based on CBP, which is a generally-used host compound.
(1) Solubility Evaluation Method: solubility was determined by removing the filtered solution of the solvent and measuring the mass of the remaining solid, and the result is shown in the following Table 1. […]

Solubility Chlorobenzene (chlorobenzene) | Solubility Toluene (toluene) | Solubility in chlorobenzene (in words) (chlorobenzene) | Solubility in toluene (in words) (toluene) | SMILES
equal to 3 wt % | equal to 3 wt % | – | – | c1ccc(-n2c3ccccc3c3ccc4c5ccccc5n(-c5ccccc5)c4c32)cc1 [Chem. Form. 38]
equal to 3 wt % | equal to 3 wt % | – | – | c1ccc(-c2nnc(-c3ccc(-c4ccc5c(c4)C4(c6ccccc6-c6ccccc64)c4ccccc4-5)cc3)o2)cc1 [Chem. Form. 43]
1 wt % | equal to 0.5 wt % | part of the CBP was dissolved | little CBP was dissolved | c1ccc2c(c1)c1ccccc1n2-c1ccc(-c2ccc(-n3c4ccccc4c4ccccc43)cc2)cc1 [CBP, 4,4-N,N-dicarbazolebiphenyl, reference compound]
equal to 3 wt % | equal to 3 wt % | – | – | c1ccc(-n2c3ccccc3c3c4c5ccccc5n(-c5ccccc5)c4ccc32)cc1 [Chem. Form. 20]
equal to 3 wt % | equal to 3 wt % | – | – | c1cncc(-c2nnc(-c3cc(-c4ccc5c(c4)C4(c6ccccc6-c6ccccc64)c4ccccc4-5)cc(-c4ccc5c(c4)C4(c6ccccc6-c6ccccc64)c4ccccc4-5)c3)o2)c1 [Chem. Form. 44]

From patent US20120273764A1, “COMPOSITION FOR ORGANIC PHOTOELECTRIC DEVICE, ORGANIC PHOTOELECTRIC DEVICE USING THE SAME, AND DISPLAY DEVICE INCLUDING THE SAME” (CHEIL INDUSTRIES, INC., priority 2009, published 2012)
